Measured values: ChEMBL document CHEMBL1201862, “PubChem BioAssay data set” (2004)
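Exposure lasted 48 hours, with cells grown in 96-well plates and compounds tested at five concentrations. GI50 is the concentration that inhibits growth by half.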 Activity calls are given as the source filed them. No stated cut-off is given here; in the data, active = GI50 up to about 1.1 µM and inactive = higher. Where a SMILES comes first, the peptide text is derived from it. The star is where a group is joined. Boc = CC(C)(C)OC(=O)*

Key:
Assay in all cases: DTP human tumour cell line panel, 48 h
A498 = tested on: A498
IGROV-1 = tested on: IGROV-1
CCRF-CEM = tested on: CCRF-CEM
SK-MEL-2 = tested on: SK-MEL-2
SN12C = tested on: SN12C
SR = tested on: SR
SNB-78 = tested on: SNB-78
SF-539 = tested on: SF-539
DMS-114 = tested on: DMS-114
M14 = tested on: M14
NCI-H23 = tested on: NCI-H23
SK-OV-3 = tested on: SK-OV-3
CAKI-1 = tested on: CAKI-1
OVCAR-4 = tested on: OVCAR-4
HOP-62 = tested on: HOP-62
HCT-116 = tested on: HCT-116
NCI-H460 = tested on: NCI-H460
NCI-H522 = tested on: NCI-H522
786-0 = tested on: 786-0
SF-268 = tested on: SF-268
RPMI-8226 = tested on: RPMI-8226
SNB-75 = tested on: SNB-75
HOP-92 = tested on: HOP-92
RXF 631 = tested on: RXF 631
LXFL 529 = tested on: LXFL 529
XF498 = tested on: XF498
NCI-H226 = tested on: NCI-H226
UO-31 = tested on: UO-31
UACC-62 = tested on: UACC-62
COLO 205 = tested on: COLO 205
LOX IMVI = tested on: LOX IMVI
MOLT-4 = tested on: MOLT-4
HCC 2998 = tested on: HCC 2998
Malme-3M = tested on: Malme-3M
K562 = tested on: K562
HL-60 = tested on: HL-60
DLD-1 = tested on: DLD-1
DMS-273 = tested on: DMS-273
M19-MEL = tested on: M19-MEL
SK-MEL-28 = tested on: SK-MEL-28
KM12 = tested on: KM12
UACC-257 = tested on: UACC-257
EKVX = tested on: EKVX
OVCAR-8 = tested on: OVCAR-8
U-251 = tested on: U-251
SNB-19 = tested on: SNB-19
TK-10 = tested on: TK-10
OVCAR-5 = tested on: OVCAR-5
HT-29 = tested on: HT-29
RXF 393 = tested on: RXF 393
ACHN = tested on: ACHN
A549 = tested on: A549
SF-295 = tested on: SF-295
KM-20L2 = tested on: KM-20L2
SK-MEL-5 = tested on: SK-MEL-5
HOP-18 = tested on: HOP-18
HCT-15 = tested on: HCT-15
OVCAR-3 = tested on: OVCAR-3

SMILES: CSCCC(NC(=O)C(CC(C)C)NC(=O)C1CCCN1C(=O)C(Cc1ccccc1)NC(=O)C(Cc1ccccc1)NC(=O)C(CCC(=O)O)NC(=O)OC(C)(C)C)C(N)=O (stereo unspecified) (Boc-EFFPLM-NH2; configuration not given here)
- GI50 (A498): > 100 µM (inactive)
- GI50 (IGROV-1): > 100 µM (inactive)
- GI50 (CCRF-CEM): > 100 µM (inactive)
- GI50 (SK-MEL-2): > 100 µM (inactive)
- GI50 (SN12C): > 100 µM (inactive)
- GI50 (SR): > 100 µM (inactive)
- GI50 (SNB-78): > 100 µM (inactive)
- GI50 (SF-539): > 100 µM (inactive)
- GI50 (DMS-114): > 100 µM (inactive)
- GI50 (M14): > 100 µM (inactive)
- GI50 (NCI-H23): > 100 µM (inactive)
- GI50 (SK-OV-3): > 100 µM (inactive)
- GI50 (CAKI-1): > 100 µM (inactive)
- GI50 (OVCAR-4): > 100 µM (inactive)
- GI50 (HOP-62): > 100 µM (inactive)
- GI50 (HCT-116): > 100 µM (inactive)
- GI50 (NCI-H460): > 100 µM (inactive)
- GI50 (NCI-H522): > 100 µM (inactive)
- GI50 (786-0): > 100 µM (inactive)
- GI50 (SF-268): > 100 µM (inactive)
- GI50 (RPMI-8226): > 100 µM (inactive)
- GI50 (SNB-75): > 100 µM (inactive)
- GI50 (HOP-92): > 100 µM (inactive)
- GI50 (RXF 631): > 100 µM (inactive)
- GI50 (LXFL 529): > 100 µM (inactive)
- GI50 (XF498): > 100 µM (inactive)
- GI50 (NCI-H226): > 100 µM (inactive)
- GI50 (UO-31): > 100 µM (inactive)
- GI50 (UACC-62): > 100 µM (inactive)
- GI50 (COLO 205): > 100 µM (inactive)
- GI50 (LOX IMVI): > 100 µM (inactive)
- GI50 (MOLT-4): > 100 µM (inactive)
- GI50 (HCC 2998): > 100 µM (inactive)
- GI50 (Malme-3M): > 100 µM (inactive)
- GI50 (K562): > 100 µM (inactive)
- GI50 (HL-60): > 100 µM (inactive)
- GI50 (DLD-1): > 100 µM (inactive)
- GI50 (DMS-273): > 100 µM (inactive)
- GI50 (M19-MEL): > 100 µM (inactive)
- GI50 (SK-MEL-28): > 100 µM (inactive)

SMILES: CCCC(=O)OCC1OC2OC(C)(C)OC2C2OC(C)(C)OC12 (stereo unspecified)
- GI50 (A498): > 100 µM (inactive)
- GI50 (IGROV-1): > 100 µM (inactive)
- GI50 (CCRF-CEM): > 100 µM (inactive)
- GI50 (SR): > 100 µM (inactive)
- GI50 (SNB-78): > 100 µM (inactive)
- GI50 (KM12): > 100 µM (inactive)
- GI50 (UACC-257): > 100 µM (inactive)
- GI50 (M14): > 100 µM (inactive)
- GI50 (EKVX): > 100 µM (inactive)
- GI50 (NCI-H23): > 100 µM (inactive)
- GI50 (SK-OV-3): > 100 µM (inactive)
- GI50 (HOP-62): > 100 µM (inactive)
- GI50 (HCT-116): > 100 µM (inactive)
- GI50 (NCI-H460): > 100 µM (inactive)
- GI50 (NCI-H522): > 100 µM (inactive)
- GI50 (OVCAR-8): > 100 µM (inactive)
- GI50 (HOP-92): > 100 µM (inactive)
- GI50 (U-251): > 100 µM (inactive)
- GI50 (RXF 631): > 100 µM (inactive)
- GI50 (SNB-19): > 100 µM (inactive)
- GI50 (TK-10): 23.6 µM (inactive)
- GI50 (NCI-H226): 19 µM (inactive)
- GI50 (OVCAR-5): > 100 µM (inactive)
- GI50 (HT-29): > 100 µM (inactive)
- GI50 (RXF 393): > 100 µM (inactive)
- GI50 (UO-31): > 100 µM (inactive)
- GI50 (MOLT-4): > 100 µM (inactive)
- GI50 (HL-60): > 100 µM (inactive)
- GI50 (ACHN): > 100 µM (inactive)
- GI50 (DMS-273): > 100 µM (inactive)
- GI50 (A549): > 100 µM (inactive)
- GI50 (M19-MEL): > 100 µM (inactive)
- GI50 (SK-MEL-28): > 100 µM (inactive)
- GI50 (SF-295): > 100 µM (inactive)

SMILES: COC(=O)N/N=C(\C)c1sc(-c2nc(C)c(/C(C)=N/NC(=O)OC)s2)nc1C
- GI50 (KM-20L2): > 100 µM (inactive)
- GI50 (A498): > 100 µM (inactive)
- GI50 (IGROV-1): > 100 µM (inactive)
- GI50 (CCRF-CEM): 79.6 µM (inactive)
- GI50 (SK-MEL-2): > 100 µM (inactive)
- GI50 (SN12C): > 100 µM (inactive)
- GI50 (SR): 20.7 µM (inactive)
- GI50 (SNB-78): 62.7 µM (inactive)
- GI50 (KM12): > 100 µM (inactive)
- GI50 (SF-539): > 100 µM (inactive)
- GI50 (UACC-257): > 100 µM (inactive)
- GI50 (DMS-114): 42.2 µM (inactive)
- GI50 (M14): > 100 µM (inactive)
- GI50 (EKVX): > 100 µM (inactive)
- GI50 (NCI-H23): > 100 µM (inactive)
- GI50 (SK-OV-3): > 100 µM (inactive)
- GI50 (CAKI-1): > 100 µM (inactive)
- GI50 (OVCAR-4): > 100 µM (inactive)
- GI50 (HOP-62): > 100 µM (inactive)
- GI50 (HCT-116): > 100 µM (inactive)
- GI50 (NCI-H460): > 100 µM (inactive)
- GI50 (NCI-H522): 41.7 µM (inactive)
- GI50 (786-0): > 100 µM (inactive)
- GI50 (SF-268): > 100 µM (inactive)
- GI50 (OVCAR-8): > 100 µM (inactive)
- GI50 (RPMI-8226): > 100 µM (inactive)
- GI50 (SNB-75): > 100 µM (inactive)
- GI50 (HOP-92): > 100 µM (inactive)
- GI50 (U-251): > 100 µM (inactive)
- GI50 (SK-MEL-5): > 100 µM (inactive)
- GI50 (RXF 631): > 100 µM (inactive)
- GI50 (SNB-19): > 100 µM (inactive)
- GI50 (LXFL 529): > 100 µM (inactive)
- GI50 (HOP-18): > 100 µM (inactive)
- GI50 (TK-10): > 100 µM (inactive)
- GI50 (HCT-15): > 100 µM
- GI50 (NCI-H226): > 100 µM (inactive)
- GI50 (OVCAR-5): > 100 µM (inactive)
- GI50 (HT-29): > 100 µM (inactive)
- GI50 (RXF 393): > 100 µM (inactive)
- GI50 (UO-31): > 100 µM (inactive)
- GI50 (UACC-62): > 100 µM (inactive)
- GI50 (OVCAR-3): > 100 µM (inactive)
- GI50 (COLO 205): > 100 µM (inactive)
- GI50 (LOX IMVI): 64.1 µM (inactive)
- GI50 (MOLT-4): > 100 µM (inactive)
- GI50 (HCC 2998): > 100 µM (inactive)
- GI50 (Malme-3M): > 100 µM (inactive)
- GI50 (K562): > 100 µM (inactive)
- GI50 (HL-60): 39.1 µM (inactive)
- GI50 (DLD-1): > 100 µM (inactive)
- GI50 (ACHN): > 100 µM (inactive)
- GI50 (DMS-273): 95.9 µM (inactive)
- GI50 (A549): > 100 µM (inactive)
- GI50 (M19-MEL): > 100 µM (inactive)
- GI50 (SK-MEL-28): > 100 µM (inactive)
- GI50 (SF-295): > 100 µM (inactive)
